Structures can show the parent of a compound that is named as a salt.
These compounds were tested against T1, HCV polymerase (Hepatitis C virus genotype 1b, UniProt P26663) (assay: biochemical). Settings: not given.
T1 construct: a region encoding NS5B (J Virol 1991 March, 65(3), 1105-13, 544 amino acids after deletion of 47 amino acids on the C-terminal); 6xHis (C); made in house; host or cells: Escherichia coli
Design: species or system HCV BK strain
Outline: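 His-tagged NS5B (BK strain, 47-aa C-terminal deletion, E. coli-expressed) at 0.5 μg/ml copied 5 μg/ml run-off RNA bearing the HCV 3′ UTR with 2 μM UTP plus [3H]UTP, 50 μM ATP/GTP, in pH 7.5 Tris with 5 mM MgCl2, 25 °C, 90 min. TCA-precipitated RNA was counted and IC50 calculated.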

T1 sequence (P26663 2420-2963): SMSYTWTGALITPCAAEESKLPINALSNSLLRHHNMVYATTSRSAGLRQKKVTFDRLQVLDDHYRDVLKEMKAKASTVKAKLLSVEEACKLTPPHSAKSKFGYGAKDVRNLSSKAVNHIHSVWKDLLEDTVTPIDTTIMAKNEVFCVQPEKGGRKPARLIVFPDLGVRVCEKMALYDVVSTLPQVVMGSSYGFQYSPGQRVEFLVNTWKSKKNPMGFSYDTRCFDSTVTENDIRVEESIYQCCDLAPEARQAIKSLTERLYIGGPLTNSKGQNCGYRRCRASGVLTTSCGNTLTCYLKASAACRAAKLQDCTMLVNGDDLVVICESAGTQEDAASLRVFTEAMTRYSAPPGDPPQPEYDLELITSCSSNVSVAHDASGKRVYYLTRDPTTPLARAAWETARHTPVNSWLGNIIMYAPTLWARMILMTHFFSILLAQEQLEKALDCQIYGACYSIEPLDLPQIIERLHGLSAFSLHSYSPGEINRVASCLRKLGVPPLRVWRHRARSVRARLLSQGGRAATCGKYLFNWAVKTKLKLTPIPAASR

`Cc1oc(C(C)(C)NC(=O)c2ccc3c(C4CCCCC4)c4n(c3c2)CCOc2ccccc2-4)nc1C(=O)O` [Example 2-236, 2-{1-[(12-cyclohexyl-6,7-dihydro-5-oxa-7a-azadibenzo[a,e]azulene-9-carbonyl)amino]-1-methylethyl}-5-methyloxazole-4-carboxylic acid] and `Cc1nc(C(C)(C)NC(=O)c2ccc3c(C4CCCCC4)c4n(c3c2)CCOc2ccccc2-4)[nH]c1C` [Example 2-258, N-[1-(4,5-dimethyl-1H-imidazol-2-yl)-1-methylethyl]-12-cyclohexyl-6,7-dihydro-5-oxa-7a-azadibenzo[a,e]azulene-9-carboxamide] cannot be ordered by IC50: under 100 nM for the first, under 100 nM for the second.

`COc1ccc(C[C@H](NC(=O)c2ccc3c(C4CCCCC4)c4n(c3c2)CCOc2ccccc2-4)C(=O)O)cc1` [Example 2-237, (S)-2-[(12-cyclohexyl-6,7-dihydro-5-oxa-7a-azadibenzo[a,e]azulene-9-carbonyl)amino]-3-(4-methoxyphenyl)propionic acid] and `O=C(N[C@H](Cc1ccc(O)cc1)C(=O)O)c1ccc2c(C3CCCCC3)c3n(c2c1)CCOc1ccccc1-3` [Example 2-246, (R)-2-[(12-cyclohexyl-6,7-dihydro-5-oxa-7a-azadibenzo[a,e]azulene-9-carbonyl)amino]-3-(4-hydroxyphenyl)propionic acid] cannot be ordered by IC50: under 100 nM for the first, under 100 nM for the second.

`COC(=O)[C@@H](Cc1ccc(O)cc1)NC(=O)c1ccc2c(C3CCCCC3)c3n(c2c1)CCOc1ccccc1-3` [Example 2-238, methyl (R)-2-[(12-cyclohexyl-6,7-dihydro-5-oxa-7a-azadibenzo[a,e]azulene-9-carbonyl)amino]-3-(4-hydroxyphenyl)propionate] and `CNC(=O)[C@H](Cc1ccc(O)cc1)NC(=O)c1ccc2c(C3CCCCC3)c3n(c2c1)CCOc1cc(OC)ccc1-3` [Example 2-263, N—[(S)-2-(4-hydroxyphenyl)-1-(methylcarbamoyl)ethyl]-12-cyclohexyl-3-methoxy-6,7-dihydro-5-oxa-7a-azadibenzo[a,e]azulene-9-carboxamide] cannot be ordered by IC50: under 100 nM for the first, under 100 nM for the second.

`CC(C)(CN[C@H]1CC[C@H](O)CC1)NC(=O)c1ccc2c(C3CCCCC3)c3n(c2c1)CCOc1ccccc1-3` [Example 2-239, N-[2-(trans-4-hydroxycyclohexylamino)-1,1-dimethylethyl]-12-cyclohexyl-6,7-dihydro-5-oxa-7a-azadibenzo[a,e]azulene-9-carboxamide] and `CC(C)(CN/C=C/C(=O)O)NC(=O)c1ccc2c(C3CCCCC3)c3n(c2c1)CCOc1ccccc1-3` [Example 2-254, (E)-3-{2-[(12-cyclohexyl-6,7-dihydro-5-oxa-7a-azadibenzo[a,e]azulene-9-carbonyl)amino]-2-methylpropylamino}acrylic acid] fall in the same range of IC50: 100 to 1000 nM for the first, 100 to 1000 nM for the second.

`CC(C)(NC(=O)c1ccc2c(C3CCCCC3)c3n(c2c1)CCOc1ccccc1-3)C(=O)N1CCCC(O)C1` (stereo not shown) [Example 2-240, N-[2-(3-hydroxypiperidin-1-yl)-1,1-dimethyl-2-oxoethyl]-12-cyclohexyl-6,7-dihydro-5-oxa-7a-azadibenzo[a,e]azulene-9-carboxamide] and `CC(C)(NC(=O)c1ccc2c(C3CCCCC3)c3n(c2c1)CCOc1ccccc1-3)C(=O)N1CCC(CO)CC1` [Example 2-242, N-[2-(4-hydroxymethylpiperidin-1-yl)-1,1-dimethyl-2-oxoethyl]-12-cyclohexyl-6,7-dihydro-5-oxa-7a-azadibenzo[a,e]azulene-9-carboxamide] cannot be ordered by IC50: under 100 nM for the first, under 100 nM for the second.

`CC(C)(NC(=O)c1ccc2c(C3CCCCC3)c3n(c2c1)CCOc1ccccc1-3)c1ccc(OCC(=O)O)cc1` [Example 2-241, (4-{1-[(12-cyclohexyl-6,7-dihydro-5-oxa-7a-azadibenzo[a,e]azulene-9-carbonyl)amino]-1-methylethyl}phenoxy)acetic acid] and `CC(C)(CNc1ccc(C(=O)O)cn1)NC(=O)c1ccc2c(C3CCCCC3)c3n(c2c1)CCOc1ccccc1-3` [Example 2-255, 6-{2-[(12-cyclohexyl-6,7-dihydro-5-oxa-7a-azadibenzo[a,e]azulene-9-carbonyl)amino]-2-methylpropylamino}nicotinic acid] cannot be ordered by IC50: under 100 nM for the first, under 100 nM for the second.

`CCN1CCC(CCN(CC)c2cccc3c2OCCn2c-3c(C3CCCCC3)c3ccc(C(=O)O)cc32)CC1` [Example 2-243, 12-cyclohexyl-4-{N-ethyl-N-[2-(1-ethylpiperidin-4-yl)ethyl]amino}-6,7-dihydro-5-oxa-7a-azadibenzo[a,e]azulene-9-carboxylic acid dihydrochloride] and `O=C(O)c1ccc2c(C3CCCCC3)c3n(c2c1)CCOc1c-3cccc1N(CCO)CCN1CCCCC1` [Example 2-261, 12-cyclohexyl-4-{N-(2-hydroxyethyl)-N-[2-(piperidin-1-yl)ethyl]amino}-6,7-dihydro-5-oxa-7a-azadibenzo[a,e]azulene-9-carboxylic acid dihydrochloride] cannot be ordered by IC50: under 100 nM for the first, under 100 nM for the second.

First: CC(C)(CN1CCN(CCO)CC1)NC(=O)c1ccc2c(C3CCCCC3)c3n(c2c1)CCOc1ccccc1-3 [Example 2-244, N-{2-[4-(2-hydroxyethyl)piperazin-1-yl]-1,1-dimethylethyl}-12-cyclohexyl-6,7-dihydro-5-oxa-7a-azadibenzo[a,e]azulene-9-carboxamide]
Second: Cc1nc(C(C)(C)NC(=O)c2ccc3c(C4CCCCC4)c4n(c3c2)CCOc2ccccc2-4)n(C)c1C [Example 2-259, N-[1-methyl-1-(1,4,5-trimethyl-1H-imidazol-2-yl)ethyl]-12-cyclohexyl-6,7-dihydro-5-oxa-7a-azadibenzo[a,e]azulene-9-carboxamide]
The IC50 of the first is higher: 100 to 1000 nM for the first, under 100 nM for the second. The second is the more potent here.

`O=C(O)CN1CCC(NC(=O)c2ccc3c(C4CCCCC4)c4n(c3c2)CCOc2ccccc2-4)(c2nc3ccccc3[nH]2)CC1` [Example 2-247, {4-(1H-benzimidazol-2-yl)-4-[(12-cyclohexyl-6,7-dihydro-5-oxa-7a-azadibenzo[a,e]azulene-9-carbonyl)amino]piperidin-1-yl}acetic acid] and `COC(=O)CN1CCC(NC(=O)c2ccc3c(C4CCCCC4)c4n(c3c2)CCOc2ccccc2-4)(c2nc3ccccc3[nH]2)CC1` [Example 2-248, methyl (4-(1H-benzimidazol-2-yl)-4-[(12-cyclohexyl-6,7-dihydro-5-oxa-7a-azadibenzo[a,e]azulene-9-carbonyl)amino]piperidin-1-yl]acetate monohydrochloride] cannot be ordered by IC50: under 100 nM for the first, under 100 nM for the second.

`Cn1c(CNC(=O)c2ccc3c(C4CCCCC4)c4n(c3c2)CCOc2ccccc2-4)nc2ccccc21` [Example 2-249, N-(1-methyl-1H-benzimidazol-2-ylmethyl)-12-cyclohexyl-6,7-dihydro-5-oxa-7a-azadibenzo[a,e]azulene-9-carboxamide] and `O=C(O)Cn1c(CNC(=O)c2ccc3c(C4CCCCC4)c4n(c3c2)CCOc2ccccc2-4)nc2ccccc21` [Example 2-250, (2-{[(12-cyclohexyl-6,7-dihydro-5-oxa-7a-azadibenzo[a,e]azulene-9-carbonyl)amino]methyl}benzimidazol-1-yl)acetic acid] cannot be ordered by IC50: under 100 nM for the first, under 100 nM for the second.

`COC(=O)Cn1c(CNC(=O)c2ccc3c(C4CCCCC4)c4n(c3c2)CCOc2ccccc2-4)nc2ccccc21` [Example 2-251, methyl (2-{[(12-cyclohexyl-6,7-dihydro-5-oxa-7a-azadibenzo[a,e]azulene-9-carbonyl)amino]methyl}benzimidazol-1-yl)acetate] and `O=C(NCc1nc2ccccc2[nH]1)c1ccc2c(C3CCCCC3)c3n(c2c1)CCOc1ccccc1-3` [Example 2-252, N-(1H-benzimidazol-2-ylmethyl)-12-cyclohexyl-6,7-dihydro-5-oxa-7a-azadibenzo[a,e]azulene-9-carboxamide] cannot be ordered by IC50: under 100 nM for the first, under 100 nM for the second.

`O=C(O)c1ccc2c(C3CCCCC3)c3n(c2c1)CCOc1c-3cccc1N(CCOCc1ccccc1)CCN1CCCCC1` [Example 2-256, 4-{N-(2-benzyloxyethyl)-N-[2-(piperidin-1-yl)ethyl]amino}-12-cyclohexyl-6,7-dihydro-5-oxa-7a-azadibenzo[a,e]azulene-9-carboxylic acid dihydrochloride] and `CC(C)OCCN(CCN1CCCCC1)c1cccc2c1OCCn1c-2c(C2CCCCC2)c2ccc(C(=O)O)cc21` [Example 2-257, 12-cyclohexyl-4-(N-(2-isopropoxyethyl)-N-[2-(piperidin-1-yl)ethyl]amino}-6,7-dihydro-5-oxa-7a-azadibenzo[a,e]azulene-9-carboxylic acid dihydrochloride] cannot be ordered by IC50: under 100 nM for the first, under 100 nM for the second.

`CC(C)(NC(=O)c1ccc2c(C3CCCCC3)c3n(c2c1)CCOc1ccccc1-3)C(=O)Nc1cccc(O)c1` [Example 2-260, N-[1-(3-hydroxyphenylcarbamoyl)-1-methylethyl]-12-cyclohexyl-6,7-dihydro-5-oxa-7a-azadibenzo[a,e]azulene-9-carboxamide] and `COc1ccc2c(c1)OCCn1c-2c(C2CCCCC2)c2ccc(C(=O)N[C@@H](Cc3ccc(O)cc3)C(=O)N(C)C)cc21` [Example 2-262, N—[(S)-1-dimethylcarbamoyl-2-(4-hydroxyphenyl)ethyl]-12-cyclohexyl-3-methoxy-6,7-dihydro-5-oxa-7a-azadibenzo[a,e]azulene-9-carboxamide] cannot be ordered by IC50: under 100 nM for the first, under 100 nM for the second.

Same assay, conditions: 25° C., 90 min; [5,6-3H]UTP incorporation into RNA; read-out: HCV polymerase inhibitory activity IC50

`CNC(=O)[C@H](Cc1ccc(O)cc1)NC(=O)c1ccc2c(C3CCCCC3)c3n(c2c1)CCOc1ccccc1-3` [Example 2-245, [(S)-2-(4-hydroxyphenyl)-1-(methylcarbamoyl)ethyl]-12-cyclohexyl-6,7-dihydro-5-oxa-7a-azadibenzo[a,e]azulene-9-carboxamide] was tested, and the IC50 was under 100 nM.

Same assay, conditions: read-out: HCV polymerase inhibitory activity IC50; 25° C., 90 min; [5,6-3H]UTP incorporation into RNA

`O=C(NC(Cc1c[nH]c2ccc(O)cc12)C(=O)O)c1ccc2c(C3CCCCC3)c3n(c2c1)CCOc1ccccc1-3` (stereo not shown) [Example 2-253] showed an IC50 of under 100 nM.

— patent US20070049593A1 (priority 2004, published 2007)
